Assays:
[1] = tested on: ovariectomized rat osteoporosis (OVX) model; test: Bone mineral density (BMD) of femur by DXA in the OVX rat model; type: in vivo; conditions: OVX rats
Excerpt: In the following experimental section dual-energy X-ray absorptiometry (DXA) was used to measure bone mineral density.
In the experimental set up data were elaborated using the ovariectomized rat osteoporosis (OVX) model. This model mimics the estrogen deficient status as found in postmenopausal women or poststerilized female pets leading to osteoporosis. The SHAM group with intact ovaries served as control. Each test group consisted of 10-12 animals. The feed used was free of isoflavones, such as, for example, genistein. […] The administration of vitamin K1, in an amount of 20 μg/kg feed corresponds to a daily dosage of about 1 μg/kg BW, the estimated daily requirement of vitamin K1. The amount of vitamin D3 was 500 IU/kg feed which corresponds to a daily dosage of 25 IU/kg BW, the estimated daily requirement. For fortification, PUFA (5% of ROPUPA “30” n-3 Food Oil) was added to the feed corresponding to a PUPA fortification of % in feed as given in Table 1. Bone mineral density, osteocalcin, and deoxypyridinolin have been measured 84 days post intervention.
Bone mineral density (BMD) measurement in the femur of OVX rats: […]

[2] = tested on: ovariectomized rat osteoporosis (OVX) model; test: Serum osteocalcin (bone formation marker) in OVX rats; type: in vivo
Procedure: Osteocalcin, a biochemical marker for bone formation, is a bone-specific protein secreted primarily in osteoblasts, i.e. the bone forming cells. Serum osteocalcin was measured as marker for bone formation.
(§1) In the experimental set up data were elaborated using the ovariectomized rat osteoporosis (OVX) model. This model mimics the estrogen deficient status as found in postmenopausal women or poststerilized female pets leading to osteoporosis. The SHAM group with intact ovaries served as control. Each test group consisted of 10-12 animals. The feed used was free of isoflavones, such as, for example, genistein. The test compounds in various combinations as given in Table 1 have been administered by feed admix. […] The administration of vitamin K1, in an amount of 20 μg/kg feed corresponds to a daily dosage of about 1 μg/kg BW, the estimated daily requirement of vitamin K1. The amount of vitamin D3 was 500 IU/kg feed which corresponds to a daily dosage of 25 IU/kg BW, the estimated daily requirement. For fortification, PUFA (5% of ROPUPA “30” n-3 Food Oil) was added to the feed corresponding to a PUPA fortification of % in feed as given in Table 1. Bone mineral density, osteocalcin, and deoxypyridinolin have been measured 84 days post intervention.
Serum Osteocalcin (bone formation marker) measurement in OVX rats: […]

[3] = tested on: ovariectomized rat osteoporosis (OVX) model; test: Deoxypyridinoline excretion (bone resorption marker) in OVX rats; type: in vivo
Procedure: Deoxypyridinoline (DPD) crosslinks excretion provides a highly specific marker for bone resorption. DPD crosslinks excretion was measured as a marker for bone resorption. The values have to be corrected for urinary concentration by creatinine measurement as it is known in the art.
as §1
Deoxypyridinoline (bone resorption marker) measurement in OVX rats: […]

[4] = Plasma genistein level in rats after feed admix; type: in vivo, rat; conditions: genistein 15 mg/kg BW per day, comparable to Japanese people on a traditional diet
Excerpt: as §1

[5] = 84 days post intervention, compared with the other groups

## O=c1c(-c2ccc(O)cc2)coc2cc(O)cc(O)c12 [Genistein, 4′,5,7-trihydroxy-isoflavone]
[1]; [5]
  Effect on BMD (in words): improved BMD to control values
[1]; feed admix, day 84 postintervention, DXA
  Bone mineral density of femur, Mean: 0.143 g/cm^2
[2]; [5]
  Effect on serum osteocalcin levels (in words): reduced osteocalcin levels to control values
[2]; feed admix, day 84 postintervention
  Serum osteocalcin, Mean serum conc.: 14.6 ng/mL
[3]; [5]
  Effect on DPD excretion (in words): restores DPD excretion to values of the control group
[3]; feed admix, day 84 postintervention, corrected by creatinine
  Deoxypyridinoline excretion, Mean: 220.5 nmol DPD/mmol Creatinine
[4]
  plasma genistein level: ~280 nM

Source: patent publication US7635692B2, “Composition for the prevention of osteoporosis comprising a combination of isoflavones and polyunsaturated fatty acids” (DSM IP Assets B.V., priority 2001, dated 2009)
